Data: PubChem BioAssay (NCI)
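Where inhibition never reached the appropriate level, the endpoint shown equals the highest concentration tested. Otherwise, values were interpolated linearly from a five-concentration, 48-hour dose response in 96-well plates. Definition used: TGI = concentration required for complete inhibition of growth.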

How the values were obtained:
Experiment in all cases: inhibition of tumour cell growth, NCI panel, 48 h
UACC-257 melanoma = tested on: UACC-257 melanoma
OVCAR-4 ovarian = tested on: OVCAR-4 ovarian
NCI/ADR-RES ovarian = tested on: NCI/ADR-RES ovarian
OVCAR-5 ovarian = tested on: OVCAR-5 ovarian
SK-MEL-28 melanoma = tested on: SK-MEL-28 melanoma
HOP-92 NSCLC = tested on: HOP-92 NSCLC
OVCAR-8 ovarian = tested on: OVCAR-8 ovarian
U251 CNS = tested on: U251 CNS
SK-MEL-2 melanoma = tested on: SK-MEL-2 melanoma
UO-31 renal = tested on: UO-31 renal
OVCAR-3 ovarian = tested on: OVCAR-3 ovarian
KM12 colon = tested on: KM12 colon
SK-MEL-5 melanoma = tested on: SK-MEL-5 melanoma
A498 renal = tested on: A498 renal
COLO 205 colon = tested on: COLO 205 colon
HOP-62 NSCLC = tested on: HOP-62 NSCLC
HS 578T breast = tested on: HS 578T breast
K-562 leukemia = tested on: K-562 leukemia
MALME-3M melanoma = tested on: MALME-3M melanoma
IGROV1 ovarian = tested on: IGROV1 ovarian
RXF 393 renal = tested on: RXF 393 renal
MDA-N = tested on: MDA-N
NCI-H23 lung = tested on: NCI-H23 lung
ACHN renal = tested on: ACHN renal
BT-549 breast = tested on: BT-549 breast
MDA-MB-231 breast = tested on: MDA-MB-231 breast
CAKI-1 renal = tested on: CAKI-1 renal
SN12C renal = tested on: SN12C renal
SR leukemia = tested on: SR leukemia
MOLT-4 leukemia = tested on: MOLT-4 leukemia
RPMI-8226 leukemia = tested on: RPMI-8226 leukemia
CCRF-CEM leukemia = tested on: CCRF-CEM leukemia
SNB-19 CNS = tested on: SNB-19 CNS
NCI-H522 lung = tested on: NCI-H522 lung
HCT-116 colon = tested on: HCT-116 colon
UACC-62 melanoma = tested on: UACC-62 melanoma
786-0 renal = tested on: 786-0 renal
DU-145 prostate = tested on: DU-145 prostate
M14 melanoma = tested on: M14 melanoma
SNB-75 CNS = tested on: SNB-75 CNS
HCC-2998 colon = tested on: HCC-2998 colon
A549 NSCLC = tested on: A549 NSCLC
SF-539 CNS = tested on: SF-539 CNS
MCF7 breast = tested on: MCF7 breast
TK-10 renal = tested on: TK-10 renal
PC-3 prostate = tested on: PC-3 prostate
HT29 colon = tested on: HT29 colon
HCT-15 colon = tested on: HCT-15 colon
NCI-H460 lung = tested on: NCI-H460 lung
SF-295 CNS = tested on: SF-295 CNS
MDA-MB-435 = tested on: MDA-MB-435
SF-268 CNS = tested on: SF-268 CNS
LOX IMVI melanoma = tested on: LOX IMVI melanoma
NCI-H226 lung = tested on: NCI-H226 lung
SW-620 colon = tested on: SW-620 colon
SK-OV-3 ovarian = tested on: SK-OV-3 ovarian
EKVX NSCLC = tested on: EKVX NSCLC
T-47D breast = tested on: T-47D breast
HL-60(TB) leukemia = tested on: HL-60(TB) leukemia

Measured: TGI

CC(=O)OC1C[C@@H](C)C2(C[C@H](O)c3ccoc3)C(=O)OC[C@]13C2CCC(O)C31CO1 (stereo not given in full)
not listed: SW-620 colon | SK-OV-3 ovarian | EKVX NSCLC | T-47D breast | HL-60(TB) leukemia
> 100 µM: all other assays above

CCCCCC(/C=N/Nc1ccccc1)C(O)(C(F)(F)F)C(F)(F)F (stereo not given)
not listed: KM12 colon | BT-549 breast | MCF7 breast | TK-10 renal
> 100 µM: all other assays above

Cn1c(-c2ccc(/C=N/N=C/c3ccc(-c4c[n+]5ccccc5n4C)cc3)cc2)c[n+]2ccccc12
not listed: HOP-92 NSCLC | SK-MEL-2 melanoma | OVCAR-3 ovarian | A498 renal | MALME-3M melanoma | RXF 393 renal | NCI-H23 lung | BT-549 breast | CAKI-1 renal | UACC-62 melanoma | DU-145 prostate | LOX IMVI melanoma | NCI-H226 lung
> 100 µM: all other assays above

Cc1ccc(N(C)S(=O)(=O)c2ccc([N+](=O)[O-])cc2)cc1
not listed: HOP-92 NSCLC | SK-MEL-5 melanoma | A498 renal | NCI-H23 lung | T-47D breast
> 100 µM: all other assays above

NC(CSC(=O)c1ccccc1)C(=O)O (stereo not given)
not listed: K-562 leukemia | HCC-2998 colon | T-47D breast
> 100 µM: all other assays above
